Test results: patent US20150045322A1, “COMBINATION TREATMENT COMPRISING SULPHATED GLYCOSAMINOGLYCANS FOR INDUCING LABOR” (DILAFOR AB, priority 2012, published 2015)
Positions of bridges follow the written chain, without caps; N, C: chain ends. Non-standard residues stand in square brackets, D forms with d. Residues, ends and D or L forms follow the SMILES beside them. Orn = NCCC[C@H](N)C(=O)O; Mpa = O=C(O)CCS

Columns and labels:
[1] = test system: Human uterine smooth muscle cells; assay: Intracellular Ca2+ with Fluo-4 and confocal live cell imaging; assay type: cell-based
From the text: Human uterine smooth muscle cells were established in a culture. A method to measuring intracellular Ca^2+ with the calcium indicator dye Fluo-4 and live cell imaging with confocal microscopy was established for the cells.

[2] = comparison value for heparin, species not stated; cited from earlier work

Compound: NCCOB(c1ccccc1)c1ccccc1 [2-APB, 2-Aminoethoxydiphenyl borate]
- effect on oxytocin and oxytocin/DF01 stimulated Ca2+-transport ([1]; 100 μM, 30 min of incubation): decreased strongly

Compound: CCOc1ccc(C[C@H]2NC(=O)CCSSC[C@@H](C(=O)N3CCC[C@H]3C(=O)N[C@@H](CCCN)C(=O)NCC(N)=O)NC(=O)[C@H](CC(N)=O)NC(=O)[C@H]([C@@H](C)O)NC(=O)[C@H]([C@@H](C)CC)NC2=O)cc1 [Atosiban] ([Mpa][dY](Et)ITNCP[Orn]G-NH2; disulfide 1-6)
- effect on Ca2+ transport by oxytocin and the combination oxytocin/DF01 ([1]; 10^−6 M): clearly inhibited

Compound: CC[C@H](C)[C@@H]1NC(=O)[C@H](Cc2ccc(O)cc2)NC(=O)[C@@H](N)CSSC[C@@H](C(=O)N2CCC[C@H]2C(=O)N[C@@H](CC(C)C)C(=O)NCC(N)=O)NC(=O)[C@H](CC(N)=O)NC(=O)[C@H](CCC(N)=O)NC1=O [oxytocin]
- concentration giving maximum effect on Ca2+-influx to the cytosol ([1]; dose-dependent effect): 0.05 IU/ml

Compound: heparin
- corresponding (subcutaneous) bioavailability [2]: about 10%
